Measured values published in paper PMC3126777, “Selective anticancer activity of a hexapeptide with sequence homology to a non-kinase domain of Cyclin Dependent Kinase 4” (Molecular Cancer, 2011).

How the values were obtained:
[1] = test system: normal diploid human fibroblasts; assay: In-vitro morphological cell viability screen, normal fibroblasts; type: cell-based; settings: dose 200 μM
Procedure: A broad search for possible biological activity associated with the [sequence] peptide sequence was initially instituted by screening human bladder cancer cell lines for potential in-vitro morphological changes, compared to control cultures of normal diploid human fibroblasts at 4-8 passages from primary culture as controls. […] The peptides were dissolved, over a range of concentrations, in Ham's F12 + 10% FCS and introduced in 100 μL quantities to microwells containing 500 RT112 bladder cancer cells, or normal diploid human fibroblasts, in 200 μL of Ham's F12 + 10% FCS plated 24 hours earlier on 96 well plates.

[2] = test system: Cdk1 and Cdk4 expression in H460 human non-small cell lung cancer cells; assay: Western blotting of Cdk1 and Cdk4 expression, H460; type: cell-based; settings: H460, 200 μM, 24 hours, Western blot
Text: This co-expression is unaffected by cytocidal doses of cisdiamminedichloroplatinum but can accompany spontaneous cancer cell death. Whether or not Cdk1/Cdk4 co-expression remained constant in cancer cells dying as a result of exposure to PRGPRP was thus examined by Western blotting.
(§1) All cell lines were from certified sources.

[3] = test system: H460 human non-small cell lung cancer cells; assay: Time lapse photomicrography, H460; type: cell-based; settings: H460, 200 μM THR53, Ham's F12 + 10% FCS
Procedure: (§2) Progressive morphological changes in dying H460 cells exposed to 200 μM THR53 [additional file 1], contrasted with progressive cell division in untreated H460 cells [additional file 2] are shown as videos. Immortalised MRC5-hTERT fibroblasts, were unaffected by exposure to 200 μM THR53 except for some generalised slowing of growth (Figure 5A), [additional file 3] as compared to control, untreated, MRC5-hTERT cells [additional file 4]. RT112 cells were more sensitive to THR53 than H460 cells and died within 30 - 40 hours as compared to 96 hours for H460 and the majority of other human cancer cell lines investigated.
(§3) Figure 5 Time Lapse Photomicrography of MRC5-hTERT, RT112 human bladder cancer and […] human non-small cell lung cancer following exposure toTHR53. Cells were incubated in Ham's F12 + 10% FCS (control medium) or medium + 200 μM THR53. Morphological changes of vacuolation + cellar swelling are seen in RT112 at 33 hours after exposure to THR53 and in H460 at 90 hours after exposure to THR53. There was no evidence of cell blebbing or fragmentation. (see also videos)

[4] = test system: RT112 human bladder cancer cells; assay: Time lapse photomicrography, RT112; type: cell-based; settings: RT112, 200 μM THR53, Ham's F12 + 10% FCS
Procedure: as §2, §3

[5] = test system: NCI-H460 cells; assay: Mitochondrial function (alamar blue); type: cell-based, human; settings: H460, 100 μM THR53, up to 96 hours, Alamar Blue
Procedure: Mitochondrial function (alamar blue) NCI-H460 cells were grown in Ham's F12 media supplemented with 10% FCS. Cells were harvested and added to 96-well plates at densities of 250-1000. Compounds were made up from stock solutions and added directly to cells at the concentrations indicated. Cells were grown with compound for the indicated time at 37°C, 5% CO2, in a humidified atmosphere. Alamar Blue 10% (v/v) was then added and incubated for a further 4 h, and fluorescent product detected using the BMG FLUOstar plate reader. The media only background was subtracted and the data analysed as appropriate.

[6] = test system: RT112 human bladder cancer and H460 human non-small lung cancer cell lines; assay: Cell killing by cyclic amphiphilic peptides (viability and clonogenic survival); type: cell-based
Text: Attempts to limit proteolysis and improve cell uptake, by incorporating the hexameric peptide sequence into cyclic peptide cassettes were undertaken, initially without success (Table 3,X-XIII). Linear constructs attaching PRGPRP to a known cell-internalising amphiphilic sequence were also unsuccessful (Table 3,XIV and 3XV). […] Selective toxicity to these cancer cell lines, and not normal fibroblasts, was retained (Table 4).
as §1

[7] = test system: H460 cells; assay: Cell cycle phase distribution (DNA histograms); type: cell-based, human
Text: (§4) Cell death, however, was not dependent on cell division in MCF-7, RT112 or H460. […] had no effect on cell cycle phase distribution in H460 cells (Figure 6B) and […] hexapeptide cancer cell killing was unrelated to endogenous levels of Cdk4 or Cyclin D1. […] A. Macroscopic appearances of cycling […]-treated MCF-7 human breast cancer cells in medium + 10% FCS (left hand panels) compared to the same cells held outside the cell cycle in medium + 0.1%FCS (right hand panel) B. […] C. Sequential Western blots of Cdk1 and Cdk4 expression in RT112 human bladder cancer cells at 0 - 10 days after exposure to 5 mM linear, end-capped, […].

[8] = test system: MCF7 breast cancer cells; assay: Killing of cycling versus serum-deprived MCF-7 cells; type: cell-based, human
Text: as §4

[9] = test system: NCI-H460 cells; assay: Total cellular protein (sulphorhodamine B assay); type: cell-based, human; settings: H460, 100 μM THR53, up to 96 hours, sulphorhodamine B
Procedure: Control medium/alamar blue were removed and 200 μl PBS was added. […] Wells were rinsed with water and allowed to air dry. Cells were then stained in 0.4% SRB solution, before rinsing with 1% acetic acid and air drying. Incorporated dye was solubilised in 10 mM Tris and absorbance measured at 565 nm and 690 nm. Absorbance measurements at 690 nm were subtracted from the 565 nm readings to correct for multi-well plate absorbance.

[10] = test system: H460 human non-small cell lung cancer cells; assay: H460 cell killing at the dose chosen for assay comparison; type: cell-based; settings: 100 μM, by 96 hours
Procedure: In order to probe the mechanism of PRGPRP analogue induced cell death, three assays were conducted on H460 human non-small cell lung cancer cells over a period of 96 hours following exposure to THR53 (Figure 7A). Total cellular protein was measured by sulphorhodamine B [31], mitochondrial oxidation/reduction was measured by Alamar Blue assay and cellular ATP level was measured by luciferase activity. A dose of 100 μM THR53 at which 50% of H460 cells were killed by 96 hours was chosen for assay comparison. […] An assay for autophagy was thus carried out which utilises a proprietary reagent (Cyto-ID Green) that specifically labels autophagolysosomes, co-localising with LC3, a specific autophagosome marker. 25 μM Chloroquine was used as a positive control agent known to induce autophagy. […] However, no difference in the mean fluorescent intensity was seen following treatment with 100 μM THR53 at either 72 h or 96 h, when compared with control.

[11] = test system: H460 cells; assay: Autophagy Assay (Cyto-ID Green, flow cytometry); type: cell-based, human; settings: H460, 100 μM, 72 h and 96 h
Procedure: Autophagy Assay was performed as recommended by the manufacturers' instructions (Enzo ENZ-51031-[…]). Briefly, H460 cells were seeded into 6 well plates at 2.5 × 10^5 and 1 × 10^5 cells/well. Immediately after cell plating, chloroquine or […] were added at the concentrations indicated. Following compound treatment, cells were washed once in PBS and resuspended in x1 Cyto-ID Green autophagy detection reagent and incubated at room temperature for 30 min. Immediately prior to analysis, propidium iodide (PI) solution was added to the cell suspension at a final concentration of 2.5 μg/ml, to assess cell death. Analysis was carried out using FACSCalibur (BD Biosciences). Cyto-ID Green autophagy reagent was measured in the FL-1 channel (530/30 nm bandpass filters with excitation at 488 nm) and PI measured in the FL-3 channel (670 nm longpass filters with excitation at 488 nm).

## Cyc-[FPPRGPRPVKLALKLALK] (head to tail) [THR53, cyclic amphiphilic analogue, Cyc-[…]]
[1]
  Cell Viability Normal Diploid Fibroblasts: + + +
[2]
  Cdk4 expression: complete disappearance
[3]
  time at which morphological changes of vacuolation + cellular swelling are seen: 90 hours
  time to cell death: 96 h
[4]
  time at which morphological changes of vacuolation + cellular swelling are seen: 33 hours
  time to cell death: 30 to 40 h
[5]
  mitochondrial oxidation/reduction: without change
[6]; cyclic amphiphilic cassettes compared with the earlier PRGPRP peptides
  improvement in selective cancer cell cytotoxicity: fifty- to a hundred-fold improvement
[6]; for the majority of cell lines
  time at which cell killing reached a maximum: ≤ 4 days
[7]
  effect on cell cycle phase distribution: no effect
[8]; medium + 0.1%FCS, cells held outside the cell cycle
  effect on serum-deprived MCF7 cells: no effect
[8]; medium +10% FCS
  effect on cycling MCF-7 cells: killed
[9]
  total cellular protein: without change
[10]
  H460 cells killed: 50%
[11]
  autophagy, Cyto-ID Green mean fluorescent intensity compared with control: no difference
